Results as given in patent EP4806898A1, “HETEROARYL DERIVATIVE COMPOUND AND USE THEREOF” (Voronoi Inc., priority 2023, dated 2025).

target: T1, recombinant USP1 protein (Homo sapiens, UniProt O94782, DEL125-138/DEL229-408/DEL608-737); assay: Binding affinity to recombinant USP1 protein by differential scanning fluorimetry; details: compound 100 µM; 0.03 mg/mL USP1 (Δ1-66, Δ125-138, Δ229-408, Δ608-737); Tm with compound minus Tm with DMSO; read-out: ΔTm (°C)
T1 sequence (O94782 with tags, fused parts or gaps DEL125-138/DEL229-408/DEL608-737): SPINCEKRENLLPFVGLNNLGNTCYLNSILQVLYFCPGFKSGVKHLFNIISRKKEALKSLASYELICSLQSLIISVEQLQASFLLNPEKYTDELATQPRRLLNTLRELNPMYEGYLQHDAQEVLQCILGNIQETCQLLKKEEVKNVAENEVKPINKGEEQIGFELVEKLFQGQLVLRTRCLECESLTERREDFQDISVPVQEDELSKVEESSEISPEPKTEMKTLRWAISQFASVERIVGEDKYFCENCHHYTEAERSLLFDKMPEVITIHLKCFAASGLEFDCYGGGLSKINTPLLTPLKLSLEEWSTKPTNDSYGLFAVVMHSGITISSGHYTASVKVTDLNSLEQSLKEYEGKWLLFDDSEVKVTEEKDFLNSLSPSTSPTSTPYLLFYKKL
Protocol: <Experimental Example 1> Confirmation and evaluation of the binding affinity to recombinant USP1 protein
To evaluate the binding affinity of the compounds of the present invention to the USP1 protein, the following experiment was performed using differential scanning fluorimetry.
Recombinant 0.03 mg/mL USP1 (Δ1-66, Δ125-138, Δ229-408, Δ608-737) protein, dye reagent, and buffer solution (50 mM Tris-HCl pH 8.0, 150 mM NaCl, 2% glycerol, 1 mM DTT) were mixed and 19 µL of the mixture was dispensed into a well plate (MicroAmp Fast 96-Well Reaction plate, 0.1 mL). Each compound was injected at a final concentration of 100 µM in an amount of 1 µL, and the plate containing a total of 20 µL was sealed with MicroAmp Optical Adhesive Film. The melting temperature (Tm) of the protein in each well was measured using a real-time PCR (RT-PCR) device. The difference between the Tm of the sample containing the compound and the Tm containing DMSO is referred to as delta Tm (ΔTm), where a larger ΔTm value indicates stronger binding affinity. The degree of temperature at which the protein is modified in the presence of the compound compared to DMSO was calculated according to Equation 1 below: [formula]

| SMILES | ΔTm at 100 µM |
| --- | --- |
| COc1ncnc(C2CC2)c1-c1ncc2cc(C(=O)NCCS(C)(=O)=O)n(Cc3ccc(-c4nc(C(F)(F)F)cn4C(C)C)cc3)c2n1 [Example 8, 2-(4-cyclopropyl-6-methoxypyrimidin-5-yl)-7-(4-(1-isopropyl-4-(trifluoromethyl)-1H-imidazol-2-yl)benzyl)-N-(2-(methylsulfonyl)ethyl)-7H-pyrrolo[2,3-d]pyrimidine-6-carboxamide] | > 5 °C |
| COc1ncnc(C2CC2)c1-c1ncc2cc(C(=O)N3CC4CCC(C3)N4)n(Cc3ccc(-c4nc(C(F)(F)F)cn4C(C)C)cc3)c2n1 [Example 16, (3,8-diazabicyclo[3 .2.1]octan-3-yl)(2-(4-cyclopropyl-6-methoxypyrimidin-5-yl)-7-(4-(1-isopropyl-4-(trifluoromethyl)-1H-imidazol-2-yl)benzyl)-7H-pyrrolo[2,3-d]pyrimidin-6-yl)methanone] | > 5 °C |
| COc1ncnc(C2CC2)c1-c1ncc2cc(C(=O)N3CCS(=O)(=O)CC3)n(Cc3ccc(-c4nc(C(F)(F)F)cn4C(C)C)cc3)c2n1 [Example 27, (2-(4-cyclopropyl-6-methoxypyrimid in-5-yl)-7-(4-(1-isopropyl-4-(trifluoromethyl)-1H-imidazol-2-yl)benzyl)-7H-pyrrolo[2,3-d]pyrimidin-6-yl) (1,1-dioxidothiomor pholino)methanone] | > 5 °C |
| CNC(=O)c1cc2cnc(-c3c(OC)ncnc3C3CC3)nc2n1Cc1ccc(-n2ccnn2)cc1 [Example 44, 7-(4-(1H-1,2,3-triazol-1-yl)benzyl)-2-(4-cyclopropyl-6-methoxypyrimidin-5-yl)-N-methyl-7H-pyrrolo[2,3-d]pyrimidine-6-carboxamide] | < 5 °C |
| COc1ncnc(C2CC2)c1-c1ncc2cc(C(=O)N3C[C@H]4CC[C@@H](C3)N4C3CC3)n(Cc3ccc(-c4nc(C(F)(F)F)cn4C(C)C)cc3)c2n1 [Example 46, (2-(4-cyclopropyl-6-methoxypyrimid in-5-yl)-7-(4-(1-isopropyl-4-(trifluoromethyl)-1H-imidazol-2-yl)benzyl)-7H-pyrrolo[2,3-d]pyrimidin-6-yl)((1R,5S)-8-cyclopropyl-3,8-diazabicyclo[3 .2.1]octan-3-yl)methanone] | > 5 °C |
| COc1ncnc(C2CC2)c1-c1ncc2cc(C(=O)N3CCNCC3)n(Cc3ccc(-c4nc(C(F)(F)F)cn4C(C)C)cc3)c2n1 [Example 54, (2-(4-cyclopropyl-6-methoxypyrimid in-5-yl)-7-(4-(1-isopropyl-4-(trifluoromethyl)-1H-imidazol-2-yl)benzyl)-7H-pyrrolo[2,3-d]pyrimidin-6-yl) (piperazin-1-yl)methanone] | > 5 °C |
| CNC(=O)c1cc2cnc(-c3c(C4CC4)nc[nH]c3=O)nc2n1Cc1ccc(-c2nc(C(F)(F)F)cn2C(C)C)cc1 [Example 59, 2-(4-cyclopropyl-6-oxo-1,6-dihydropyrimidin-5-yl)-7-(4-(1-isopropyl-4-(trifluoromethyl)-1H-imidazol-2-yl)benzyl)-N-methyl-7H-pyrrolo[2,3-d]pyrimidine-6-carboxamide] | < 5 °C |
| CCn1cnc(C2CC2)c(-c2ncc3cc(C(=O)NC)n(Cc4ccc(-c5nc(C(F)(F)F)cn5C(C)C)cc4)c3n2)c1=O [Example 62, 2-(4-cyclopropyl-1-ethyl-6-oxo-1,6-dihydropyrimidin-5-yl)-7-(4-(1-isopropyl-4-(trifluoromethyl)-1H-imidazol-2-yl)benzyl)-N-methyl-7H-pyrrolo[2,3-d]pyrimidine-6-carboxamide] | < 5 °C |
| COc1ncnc(C2CC2)c1-c1ncc2cc(C(=O)N3CC(F)(C#N)C3)n(Cc3ccc(-c4nc(C(F)(F)F)cn4C(C)C)cc3)c2n1 [Example 72, 1-(2-(4-cyclopropyl-6-methoxypyrimidin-5-yl)-7-(4-(1-isopropyl-4-(trifluoromethyl)-1H-imidazol-2-yl)benzyl)-7H-pyrrolo[2,3-d]pyrimidine-6-carbonyl)-3-fluoroazetidine-3-carbonitrile] | > 5 °C |
| COc1ncnc(C2CC2)c1-c1ncc2cc(C(=O)NC3CCN(S(C)(=O)=O)CC3)n(Cc3ccc(-c4nc(C(F)(F)F)cn4C(C)C)cc3)c2n1 [Example 74, 2-(4-cyclopropyl-6-methoxypyrimidin-5-yl)-7-(4-(1-isopropyl-4-(trifluoromethyl)-1H-imidazol-2-yl)benzyl)-N-(1-(methylsulfonyl)piperidin-4-yl)-7H-pyrrolo[2,3-d]pyrimidine-6-carboxamide] | > 5 °C |
| COc1ncnc(C2CC2)c1-c1ncc2cc(C(=O)N(C)C3CC3)n(Cc3ccc(-c4nc(C(F)(F)F)cn4C(C)C)cc3)c2n1 [Example 76, N-cyclopropyl-2-(4-cyclopropyl-6-methoxypyrimidin-5-yl)-7-(4-(1-isopropyl-4-(trifluoromethyl)-1H-imidazol-2-yl)benzyl)-N-methyl-7H-pyrrolo[2,3-d]pyrimidine-6-carboxamide] | > 5 °C |
| COc1ncnc(C2CC2)c1-c1ncc2cc(C(=O)Nc3ccc(CN(C)C)cc3)n(Cc3ccc(-c4nc(C(F)(F)F)cn4C(C)C)cc3)c2n1 [Example 77, 2-(4-cyclopropyl-6-methoxypyrimidin-5-yl)-N-(4-((dimethylamino)methyl)phenyl)-7-(4-(1-isopropyl-4-(trifluoromethyl)-1H-imidazol-2-yl)benzyl)-7H-pyrrolo[2,3-d]pyrimidine-6-carboxamide] | > 5 °C |
| COc1ncnc(C2CC2)c1-c1ncc2cc(C(=O)N[C@H](C)CO)n(Cc3ccc(-c4nc(C(F)(F)F)cn4C(C)C)cc3)c2n1 [Example 81, (R) -2-(4-cyclopropyl-6-methoxypyrimidin-5-yl)-N-(1-hydroxypropan-2-yl)-7-(4-(1-isopropyl-4-(trifluoromethyl)-1H-imidazol-2-yl)benzyl)-7H-pyrrolo[2,3-d]pyrimidine-6-carboxamide] | > 5 °C |
| COc1ncnc(C2CC2)c1-c1ncc2cc(C(=O)N[C@@H](C)CCO)n(Cc3ccc(-c4nc(C(F)(F)F)cn4C(C)C)cc3)c2n1 [Example 91, (S)-2-(4-cyclopropyl-6-methoxypyrimidin-5-yl)-N-(4-hydroxybutan-2-yl)-7-(4-(1-isopropyl-4-(trifluoromethyl)-1H-imidazol-2-yl)benzyl)-7H-pyrrolo[2,3-d]pyrimidine-6-carboxamide] | > 5 °C |
| COc1ncnc(C2CC2)c1-c1ncc2cc(C(=O)NC3CCS(=O)(=O)CC3)n(Cc3ccc(-c4nc(C(F)(F)F)cn4C(C)C)cc3)c2n1 [Example 93, 2-(4-cyclopropyl-6-methoxypyrimidin-5-yl)-N-(1,1-dioxidotetrahydro-2H-thiopyran-4-yl)-7-(4-(1-isopropyl-4-(trifluoromethyl)-1H-imidazol-2-yl)benzyl)-7H-pyrrolo[2,3-d]pyrimidine-6-carboxamide] | > 5 °C |
| COc1ncnc(C2CC2)c1-c1ncc2cc(C(=O)N3CC(C(F)F)C3)n(Cc3ccc(-c4nc(C(F)(F)F)cn4C(C)C)cc3)c2n1 [Example 96, (2-(4-cyclopropyl-6-methoxypyrimid in-5-yl)-7-(4-(1-isopropyl-4-(trifluoromethyl)-1H-imidazol-2-yl)benzyl)-7H-pyrrolo[2,3-d]pyrimidin-6-yl) (3-(difluoromethyl)azetidin-1-yl)methanone] | > 5 °C |
| COc1ncnc(C2CC2)c1-c1ncc2cc(C(=O)NCCN3CCNCC3)n(Cc3ccc(-c4nc(C(F)(F)F)cn4C(C)C)cc3)c2n1 [Example 98, 2-(4-cyclopropyl-6-methoxypyrimidin-5-yl)-7-(4-(1-isopropyl-4-(trifluoromethyl)-1H-imidazol-2-yl)benzyl) -N-(2-(piperazin-1-yl)ethyl)-7H-pyrrolo[2,3-d]pyrimidine-6-carboxamide] | > 5 °C |
| COc1ncnc(C2CC2)c1-c1ncc2cc(C(=O)N(C)C3CNC3)n(Cc3ccc(-c4nc(C(F)(F)F)cn4C(C)C)cc3)c2n1 [Example 103, N-(azetidin-3-yl)-2-(4-cyclopropyl-6-methoxypyrimidin-5-yl)-7-(4-(1-isopropyl-4-(trifluoromethyl) -1H-imidazol-2-yl)benzyl)-N-methyl-7H-pyrrolo[2,3-d]pyrimidine-6-carboxamide] | > 5 °C |
| COc1ncnc(C2CC2)c1-c1ncc2cc(C(=O)N3CCCC3(C)C)n(Cc3ccc(-c4nc(C(F)(F)F)cn4C(C)C)cc3)c2n1 [Example 107, (2-(4-cyclopropyl-6-methoxypyrimid in-5-yl)-7-(4-(1-isopropyl-4-(trifluoromethyl)-1H-imidazol-2-yl)benzyl)-7H-pyrrolo[2,3-d]pyrimidin-6-yl)(2,2-dimethylpyrrolidin-1-yl)methanone] | > 5 °C |
